The record followed here is patent US9132111B2, “Topical antimicrobial compositions” (priority 2011, dated 2015).

What all share (assay type): cell-based
Assay [1] deals with Candida albicans ATCC 10231. The assay is described as follows: Bactericidal effect of antimicrobial composition against Candida albicans. As for the experimental part: 1) Testing strain: Candida albicans ATCC 10231, the 5-6 generations; provide by the “Reserve Center of Chinese Microbial Reservation Committee”.
The testing sample was diluted for 2, 4, 8, 16, 32, 64, 128 and […] times using standard hard water, then reacted with ATCC 10231 for 1 min, 5 min, 10 min.
(§1) 2. Testing Methods and Standards:
(§2) <<Technical Standard for Disinfection>> (2002 Edition)
(§3) GB15979-2002 <<Technical standard for testing disinfection product>> “Procedures for testing bactericide effect”
The bactericidal effect of antimicrobial composition against Candida albicans ATCC10231 at 20±1° C. temperature is shown in table 6.

Assay [2] concerns Staphylococcus aureus ATCC6538. Kind of assay: Bactericide effect of antimicrobial composition against Staphylococcus aureus. As for the experimental part:
1) Testing strain: Staphylococcus aureus ATCC6538, 5-6th generations, provided by the reserve center of China microbial reservation committee.
The testing sample was diluted for 2, 4, 8, 16, 32, 64, 128 and […] folds using standard hard water, then reacted with ATCC6538 for 1 min, 5 min, 10 min.
as §1, §2, §3

The next assay concerns Eschetichia coli 8099. The assay is described as follows: Bactericide effect of antimicrobial composition against Eschetichia coli. On the procedure: 1) Testing strain: Eschetichia coli 8099, the 5-6 generations were used; provide by the “Reserve Center of Chinese Microbial Reservation Committee”.
The testing sample was diluted for 2, 4, 8, 16, 32, 64, 128 and 256 folds using standard hard water, then reacted with Eschetichia coli 8099 for 1 min, 5 min, 10 min.
as §1, §2, §3

As for “N,N-di-n-decyl-N,N-dimethyl-ammonium 5-oxopyrrolidine-2-carboxylate [DDAPC]”, the minimum inhibiting concentrations in assay [1] (reacted 1 min) is listed as 0.0016%; in assay [1] (reacted 5 min), 0.0008%; in assay [1] (reacted 10 min), 0.0004%; in assay [2] (reacted 1 min), 0.0016%; in assay [2] (reacted 5 min) it was 0.0004%; in assay [2] (reacted 10 min), 0.0004%. In addition, the minimum inhibiting concentrations turned out to be 0.006% with Eschetichia coli 8099 (reacted 1 min), 0.003% in the assay with Eschetichia coli 8099 (reacted 5 min) and 0.003% with Eschetichia coli 8099 (reacted 10 min).
